According to patent publication US20040229791A1, “Compositions and methods of modulating TGF-beta activity by fatty acids” (priority 2002, published 2004):

Key:
Assay type in all cases: binding
TGF-β3-α2M* complex = target: T1, TGF-β3-α2M* complex (Homo sapiens, UniProt P01023); experiment: Inhibition of 125I-TGF-β3 and α2M* complex formation (5% non-denaturing PAGE); conditions: 30% inhibition
T1 construct: was purified from pooled citrate-treate human plasma; from tissue; host or cells: pooled citrate-treated human plasma
T1 sequence (P01023 24-1474): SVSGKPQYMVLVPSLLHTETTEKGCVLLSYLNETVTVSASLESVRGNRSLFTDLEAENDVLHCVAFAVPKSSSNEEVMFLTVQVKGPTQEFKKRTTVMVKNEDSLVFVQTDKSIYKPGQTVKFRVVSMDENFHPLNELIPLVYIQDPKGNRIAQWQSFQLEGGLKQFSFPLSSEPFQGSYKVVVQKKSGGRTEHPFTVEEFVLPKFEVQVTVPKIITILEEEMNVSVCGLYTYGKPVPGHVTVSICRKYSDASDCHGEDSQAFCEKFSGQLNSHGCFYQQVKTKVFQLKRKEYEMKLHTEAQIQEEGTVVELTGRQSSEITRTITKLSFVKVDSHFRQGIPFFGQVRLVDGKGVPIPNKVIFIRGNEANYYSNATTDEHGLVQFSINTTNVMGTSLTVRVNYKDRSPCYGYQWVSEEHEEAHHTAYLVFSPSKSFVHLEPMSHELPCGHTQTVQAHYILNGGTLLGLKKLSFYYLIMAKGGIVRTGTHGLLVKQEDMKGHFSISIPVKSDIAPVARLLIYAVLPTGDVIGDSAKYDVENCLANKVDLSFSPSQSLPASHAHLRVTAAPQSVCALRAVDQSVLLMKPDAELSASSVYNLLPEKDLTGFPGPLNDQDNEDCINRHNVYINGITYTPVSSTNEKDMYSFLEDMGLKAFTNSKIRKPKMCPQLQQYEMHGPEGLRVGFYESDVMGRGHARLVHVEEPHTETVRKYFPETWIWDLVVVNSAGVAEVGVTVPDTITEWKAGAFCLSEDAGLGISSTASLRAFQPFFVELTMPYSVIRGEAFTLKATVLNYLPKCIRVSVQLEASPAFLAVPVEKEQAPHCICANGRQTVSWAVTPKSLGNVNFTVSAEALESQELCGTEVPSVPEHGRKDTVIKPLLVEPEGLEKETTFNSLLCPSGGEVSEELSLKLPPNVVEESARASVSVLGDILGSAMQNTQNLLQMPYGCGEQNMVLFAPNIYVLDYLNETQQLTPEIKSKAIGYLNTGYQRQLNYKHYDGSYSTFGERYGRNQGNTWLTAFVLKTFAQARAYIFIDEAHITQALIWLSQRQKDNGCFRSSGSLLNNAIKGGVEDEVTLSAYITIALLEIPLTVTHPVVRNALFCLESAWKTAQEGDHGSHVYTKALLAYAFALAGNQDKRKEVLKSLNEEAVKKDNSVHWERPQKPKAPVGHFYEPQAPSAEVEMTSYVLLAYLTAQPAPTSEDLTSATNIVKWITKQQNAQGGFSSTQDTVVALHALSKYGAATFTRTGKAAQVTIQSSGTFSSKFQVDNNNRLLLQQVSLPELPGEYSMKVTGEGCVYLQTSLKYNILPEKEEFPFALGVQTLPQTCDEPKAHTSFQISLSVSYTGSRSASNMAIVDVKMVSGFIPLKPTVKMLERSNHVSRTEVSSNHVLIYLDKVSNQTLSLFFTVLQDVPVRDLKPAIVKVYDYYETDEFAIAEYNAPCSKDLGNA
Experimental: TGF- ? isoforms bind to α2M* with different affinities: TGF ? β2>TGF ? β1 ( active sites of TGF ? β1 and TGF- ? 2 responsible for high-affinity binding to ? 2M* are disti from the low-affinity ? 2M* binding site in TGF- ? 3 (19). To determine if fatty acids differentially affect the binding of TGF- ? isoforms to ? 2M*, the effects of various concentrations of arachidonic acid and myristic acid on complex formation of ^125I-labeled TGF ? β isoforms and ? 2M were determined*. […] It inhibited 30% of the complex form . α2M* and TGF ? β2 and TGF ? β3 at 100 and >250 μM, respectively. Arachidon polyunsaturated fatty acid, was a stronger inhibitor of complex formation of ? 2M* and TGF-.β2/TGF ? β3. It inhibited 50% of the complex formation of ? 2M* and ^125I-TGF- ? 2 at 50 μM (FIG. 3A). The observation that myristic acid and arachidonic acid inhibited complex formation of ^125I-TGF- ? […] 2M* complexes in the reaction mixtures were then analyzed by 7.5% SDS-PAGE and autoradiography.
Complex formation of ^125I-TGF-β and ? […] After 30 min at room temperature, the complex formation of ^125I-TGF- ? and. α2M* was determined by 5% non-denaturing polyacrylamide gel electrophoresis (PAGE) or by 7.5% SDS-PAGE following cross-linking by 0.6 mM DSS. After electrophoresis, the gel was stained with Coomassie blue and analyzed by autoradiography. […] 2M* was quantified using a PhosphoImager (Fuji).

125I-TGF-β1-α2M* complex = target: T2, 125I-TGF-β1-α2M* complex (Homo sapiens, UniProt P01023); experiment: Dissociation of preformed 125I-TGF-β1-α2M* complex; conditions: at 250 μM
T2 construct: was purified from pooled citrate-treate human plasma; from tissue; host or cells: pooled citrate-treated human plasma
T2 sequence (P01023 24-1474): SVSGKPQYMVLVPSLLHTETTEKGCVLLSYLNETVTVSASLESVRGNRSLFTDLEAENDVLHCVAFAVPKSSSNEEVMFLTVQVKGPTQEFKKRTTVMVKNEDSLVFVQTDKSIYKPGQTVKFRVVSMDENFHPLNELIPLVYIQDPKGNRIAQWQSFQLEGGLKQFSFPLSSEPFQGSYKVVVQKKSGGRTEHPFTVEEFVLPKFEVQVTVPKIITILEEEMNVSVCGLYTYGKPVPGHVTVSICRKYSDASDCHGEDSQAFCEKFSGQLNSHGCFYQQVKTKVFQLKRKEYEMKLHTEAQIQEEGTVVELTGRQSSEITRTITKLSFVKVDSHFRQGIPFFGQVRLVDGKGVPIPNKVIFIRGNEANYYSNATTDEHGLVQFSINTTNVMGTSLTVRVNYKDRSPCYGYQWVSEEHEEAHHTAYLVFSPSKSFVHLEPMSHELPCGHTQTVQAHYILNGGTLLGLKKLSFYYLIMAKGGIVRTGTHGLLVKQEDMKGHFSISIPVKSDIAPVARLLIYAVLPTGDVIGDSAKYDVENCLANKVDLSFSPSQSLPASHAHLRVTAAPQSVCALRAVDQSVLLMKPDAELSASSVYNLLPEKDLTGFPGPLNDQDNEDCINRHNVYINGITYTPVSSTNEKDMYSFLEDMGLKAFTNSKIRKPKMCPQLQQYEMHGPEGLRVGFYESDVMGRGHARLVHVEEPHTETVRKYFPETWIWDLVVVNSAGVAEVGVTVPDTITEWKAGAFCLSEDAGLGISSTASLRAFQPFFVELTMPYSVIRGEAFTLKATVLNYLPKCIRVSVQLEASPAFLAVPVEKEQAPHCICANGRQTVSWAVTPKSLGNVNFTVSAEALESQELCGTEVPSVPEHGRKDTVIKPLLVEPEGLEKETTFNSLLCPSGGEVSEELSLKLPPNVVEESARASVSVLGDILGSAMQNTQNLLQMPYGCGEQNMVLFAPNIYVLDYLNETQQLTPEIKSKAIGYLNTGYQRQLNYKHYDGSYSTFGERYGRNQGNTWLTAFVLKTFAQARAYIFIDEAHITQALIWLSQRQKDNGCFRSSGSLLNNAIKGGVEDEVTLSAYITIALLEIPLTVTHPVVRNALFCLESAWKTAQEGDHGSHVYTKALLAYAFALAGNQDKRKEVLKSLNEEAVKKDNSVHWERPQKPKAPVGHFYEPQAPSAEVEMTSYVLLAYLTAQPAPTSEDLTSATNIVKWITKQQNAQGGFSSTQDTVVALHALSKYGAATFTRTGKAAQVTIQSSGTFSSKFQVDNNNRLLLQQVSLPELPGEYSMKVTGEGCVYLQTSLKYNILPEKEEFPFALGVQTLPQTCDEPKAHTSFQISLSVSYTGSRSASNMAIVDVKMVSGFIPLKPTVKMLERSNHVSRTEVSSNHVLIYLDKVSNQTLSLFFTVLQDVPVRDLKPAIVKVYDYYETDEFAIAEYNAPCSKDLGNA
Experimental: To determine whether fatty acids are capable of dissociating TGF- ? - ? 2M* complexes, various concentrations of arachidonic acid were added to a reaction mixture containing ^125I-TGF- ? 1 or ^125I-TGF ? β3 and α2M* which had been preincubated at room temperature for 30 mi 30 minutes at room temperature, the ^125I-TGF ? β isoform-α2M* complexes in the reaction mixtures were analyzed by 5% non-denaturing PAGE. […] However, lower concentrations of arachidonic acid were effective in inhibiting complex formation of ^125I-TGF- ? 1 and α2M* than were required to dissociate the ^125I-TGF- ? 1- ? 2M* complex.

125I-TGF-β2-α2M* complex = target: T3, 125I-TGF-β2-α2M* complex (Homo sapiens, UniProt P01023); experiment: Dissociation of preformed 125I-TGF-β2-α2M* complex; conditions: at 250 μM
T3 construct: was purified from pooled citrate-treate human plasma; from tissue; host or cells: pooled citrate-treated human plasma
T3 sequence (P01023 24-1474): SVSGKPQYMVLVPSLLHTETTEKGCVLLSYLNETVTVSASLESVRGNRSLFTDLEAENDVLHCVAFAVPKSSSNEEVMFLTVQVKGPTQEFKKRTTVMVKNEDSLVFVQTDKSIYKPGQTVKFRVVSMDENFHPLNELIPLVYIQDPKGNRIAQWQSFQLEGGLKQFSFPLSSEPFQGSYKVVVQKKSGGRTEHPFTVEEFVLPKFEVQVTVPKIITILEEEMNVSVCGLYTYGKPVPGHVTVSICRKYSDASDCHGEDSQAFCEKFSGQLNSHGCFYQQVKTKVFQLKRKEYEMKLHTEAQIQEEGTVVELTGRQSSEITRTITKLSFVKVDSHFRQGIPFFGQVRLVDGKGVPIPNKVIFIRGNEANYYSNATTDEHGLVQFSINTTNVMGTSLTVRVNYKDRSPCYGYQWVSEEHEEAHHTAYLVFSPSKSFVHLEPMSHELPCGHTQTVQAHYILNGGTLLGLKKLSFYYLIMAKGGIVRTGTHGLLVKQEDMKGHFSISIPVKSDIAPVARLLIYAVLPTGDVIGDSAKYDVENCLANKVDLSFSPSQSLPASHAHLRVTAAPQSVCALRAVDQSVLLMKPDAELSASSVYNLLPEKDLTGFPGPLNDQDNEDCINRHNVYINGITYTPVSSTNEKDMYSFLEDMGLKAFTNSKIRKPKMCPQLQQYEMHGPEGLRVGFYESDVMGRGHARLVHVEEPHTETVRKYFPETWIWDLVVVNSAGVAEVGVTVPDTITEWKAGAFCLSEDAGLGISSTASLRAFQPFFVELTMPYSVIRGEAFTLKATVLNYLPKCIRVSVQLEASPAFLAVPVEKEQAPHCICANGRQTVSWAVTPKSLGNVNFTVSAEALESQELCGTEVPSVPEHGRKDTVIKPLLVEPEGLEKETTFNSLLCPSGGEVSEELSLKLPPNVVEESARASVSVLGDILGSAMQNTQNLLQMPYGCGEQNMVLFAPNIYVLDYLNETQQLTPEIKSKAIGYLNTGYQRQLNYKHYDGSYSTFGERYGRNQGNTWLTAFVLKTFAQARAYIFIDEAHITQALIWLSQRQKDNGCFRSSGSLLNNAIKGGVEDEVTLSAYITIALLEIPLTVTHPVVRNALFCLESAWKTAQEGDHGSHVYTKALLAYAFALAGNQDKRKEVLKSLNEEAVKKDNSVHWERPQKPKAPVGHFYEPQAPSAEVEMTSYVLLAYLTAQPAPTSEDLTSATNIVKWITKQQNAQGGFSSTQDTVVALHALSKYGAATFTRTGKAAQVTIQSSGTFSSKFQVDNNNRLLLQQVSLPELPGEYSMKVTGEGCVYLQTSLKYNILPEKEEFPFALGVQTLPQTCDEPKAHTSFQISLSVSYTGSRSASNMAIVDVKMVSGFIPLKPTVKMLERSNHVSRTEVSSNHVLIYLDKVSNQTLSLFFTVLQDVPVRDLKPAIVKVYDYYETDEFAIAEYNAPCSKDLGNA

CCCCCCCCCCCCCC(=O)O [myristic acid]
concentration that inhibited 30% of the complex formation of α2M* and TGF-β3 (TGF-β3-α2M* complex): > 250 µM
dissociation of the 125I-TGF-β1-α2M* complex (125I-TGF-β1-α2M* complex): inactive
dissociation of the 125I-TGF-β2-α2M* complex (125I-TGF-β2-α2M* complex): inactive
